Assay results as given in publication PMC9975351 (Frontiers in Pharmacology, 2023).

What was measured:
CES1 = biological target: T1, CES1 (Homo sapiens, UniProt P23141); test: Incubation with recombinant CES1; assay type: in vitro ADME; conditions: 1 µM
T1 construct: purchased Cypex (Dundee, UK)
T1 sequence (P23141 18-567): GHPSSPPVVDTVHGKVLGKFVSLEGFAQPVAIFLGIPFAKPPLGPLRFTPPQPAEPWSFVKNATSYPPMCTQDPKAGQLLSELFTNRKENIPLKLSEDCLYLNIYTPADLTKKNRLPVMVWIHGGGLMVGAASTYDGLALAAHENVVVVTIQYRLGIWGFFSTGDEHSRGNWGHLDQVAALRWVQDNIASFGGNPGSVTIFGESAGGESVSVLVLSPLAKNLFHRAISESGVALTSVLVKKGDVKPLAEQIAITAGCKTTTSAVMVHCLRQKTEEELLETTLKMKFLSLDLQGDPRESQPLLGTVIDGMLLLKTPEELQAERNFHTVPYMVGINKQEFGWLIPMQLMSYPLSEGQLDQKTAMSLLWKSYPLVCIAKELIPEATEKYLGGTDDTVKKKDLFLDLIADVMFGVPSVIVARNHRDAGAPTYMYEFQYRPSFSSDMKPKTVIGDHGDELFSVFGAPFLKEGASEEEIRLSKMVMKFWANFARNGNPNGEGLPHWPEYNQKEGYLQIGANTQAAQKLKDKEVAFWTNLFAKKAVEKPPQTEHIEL
Description: (§1) All other generated metabolites area was less than 1% of the parent area/internal standard area. […] HY-17542 underwent deacetylation rapidly in HLM incubated with or without NADPH (Figures 4A, B). The calculated half-lives for NADPH-dependent metabolism and NADPH-independent degradation were 5.26 and 10.83 min, respectively. We incubated HY-17542 without HLM and NADPH to 180 min in the phosphate buffer condition. […] CES 1 or 2 was possible enzyme responsible for the deacetylation. […] HY-17542 metabolites in HLM incubated with NADPH are presented in Figures 4C, D. M1 and M3 were also detected from HY-17542 in a time-dependent manner.
(§2) FIGURE 4 Metabolic stability of HY-17542 in HLMs. (A) 1 µM of HY-17542 was incubated with HLMs in the presence or absence of NADPH and incubated with recombinant CES 1 or CES2. […] (C) Formation of M1 in the incubation of 1 µM of HY-17542 in HLMs with NADPH. (D) Formation of M3 in the incubation of 1 µM of HY-17542 in HLMs with NADPH. Data are presented as mean ± SD from three independent samples (n = 3). (E) Representative chromatogram of GRL0617 and its metabolites in the presence of a NADPH-generating system from QTOF MS analysis.

[1] = Metabolic stability and metabolite formation in pooled human liver microsomes with NADPH and/or UDPGA; assay type: in vitro ADME; conditions: human, microsomes, pH 7.4, Half-life
Description: Microsomal incubation was conducted in triplicate using 0.1 M potassium phosphate buffer (PPB, pH 7.4) in eight-well tube strips in an 8 × 12 rack (1.2 mL; VWR, Emeryville, CA, United States). […] The mixture was pre-incubated at 37°C with shaking at approximately 100 rpm for 5 min. UGT glucuronidation was performed with HLMs (1 mg/mL) and alamethicin (25 μg/mg microsomal protein) in a 100-mM PPB (pH 7.4) solution on ice for 15 min. […] CYP, UGT, and combined reactions were initiated by addition of the NADPH regenerating system, UDPGA (1 mM), and both, respectively. […] The incubation mixtures were then centrifuged at 2,000 × g and 4°C for 20 min, and the supernatants were analyzed by LC-QTOF HRMS.
The incubation mixtures were pre-incubated at 37°C in a shaking water bath at approximately 100 rpm for 5 min. Reactions were initiated by the addition of an NADPH-regenerating system. The reaction was terminated, centrifuged then analyzed using the same method described above.
(§3) In the microsomal stability analysis, degradation half-life (t½) values were calculated using the following equation: t½=0.693/k where k is the first-order degradation rate constant, estimated by one-phase exponential-decay non-linear regression of the degradation time-course data using Graph Pad Prism 8.0 (Graph Pad Software Inc., San Diego, CA, United States). In vitro metabolic stability parameters, microsomal intrinsic clearance (CLint,mic), apparent intrinsic clearance (CL′int), and hepatic clearance (CLh), were calculated according to the well-stirred model approach ([Pang and Rowland, 1977]; [Baranczewski et al., 2006]). The apparent kinetic parameters of GRL0617 metabolism were determined by fitting a one-enzyme Michaelis-Menten equation. […] All data are presented as mean ± SD. Data were compared between groups using the unpaired Student’s t-test. The significance level was set at p < 0.05, unless indicated otherwise.

[2] = assay type: physicochemical; conditions: human, microsomes, 3 h
Description: as §1

CES2 = biological target: T2, CES2 (Homo sapiens, UniProt O00748); test: Incubation with recombinant CES2; assay type: in vitro ADME; conditions: 1 µM
T2 construct: purchased Cypex (Dundee, UK)
T2 sequence (O00748 27-559): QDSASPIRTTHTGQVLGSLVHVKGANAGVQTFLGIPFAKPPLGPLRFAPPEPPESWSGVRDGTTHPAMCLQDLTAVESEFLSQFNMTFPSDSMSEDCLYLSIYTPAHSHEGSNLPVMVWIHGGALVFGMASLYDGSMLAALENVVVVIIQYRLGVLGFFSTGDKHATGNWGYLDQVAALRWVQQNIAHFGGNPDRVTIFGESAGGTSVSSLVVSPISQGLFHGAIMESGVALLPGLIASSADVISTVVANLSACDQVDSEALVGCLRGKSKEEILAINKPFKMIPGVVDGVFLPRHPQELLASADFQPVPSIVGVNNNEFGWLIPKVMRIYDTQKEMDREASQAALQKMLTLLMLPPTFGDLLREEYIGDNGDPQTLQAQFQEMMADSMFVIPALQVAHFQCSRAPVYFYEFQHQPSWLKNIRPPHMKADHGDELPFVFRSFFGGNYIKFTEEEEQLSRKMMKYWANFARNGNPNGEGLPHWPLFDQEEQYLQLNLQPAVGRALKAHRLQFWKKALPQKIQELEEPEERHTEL
Description: as §1, §2

not read [3] = substrate: Cc1ccc(N)cc1C(=O)N[C@H](C)c1cccc2ccccc12; test: not read; conditions: other: M1 formation, recombinant CYP2D6, 10 min; 95% CI in parentheses; pH 7.4; 37.0 °C
not read [4] = substrate: Cc1ccc(N)cc1C(=O)N[C@H](C)c1cccc2ccccc12; test: not read; assay type: in vitro ADME, human; conditions: other: M1 formation, recombinant CYP3A5, 10 min; 95% CI in parentheses; pH 7.4; 37.0 °C
Description: Reactions were conducted in triplicate using 0.1 M PPB (pH 7.4) in eight-well tube strips in an 8 × 12 rack. […] The mixture was pre-incubated at 37°C with shaking at approximately 100 rpm for 5 min. Reactions were initiated by the addition of the NADPH-regenerating system and quenched with 200 µL ice-cold acetonitrile containing 50 nM CBZ. The samples were centrifuged at 1,000 × g and 4°C for 20 min, and the supernatants were subjected to LC-QTOF HRMS. […] The reaction was incubated, initiated, terminated, centrifuged then analyzed using the same method described above.
as §3, with “Data were compared between groups using the unpaired Student’s t-test. The significance level was set at p < 0.05, unless indicated otherwise.” left out

Molecule: CC(=O)Nc1ccc(C)c(C(=O)N[C@H](C)c2cccc3ccccc23)c1 [HY-17542, 5-[acetylamino]-2-methyl-N-[(1R)-1-(1-naphthalenyl)ethyl]benzamide]
- Effect on HY-17542 concentration (CES1): did not affect HY-17542 concentration
- half-life at 1 µM [1]: 5.26 min
- half-life at 1 µM ([1]; NADPH-independent degradation): 10.8 min
- Remaining compound [2]: 99.89 ± 7.69%
- HY-17542 concentration remaining (CES2): 88.01 ± 10.5%

B1: CYP2D6 (Homo sapiens) (protein)
chain: MGLEALVPLAVIVAIFLLLVDLMHRRQRWAARYPPGPLPLPGLGNLLHVDFQNTPYCFDQLRRRFGDVFSLQLAWTPVVVLNGLAAVREALVTHGEDTADRPPVPITQILGFGPRSQGVFLARYGPAWREQRRFSVSTLRNLGLGKKSLEQWVTEEAACLCAAFANHSGRPFRPNGLLDKAVSNVIASLTCGRRFEYDDPRFLRLLDLAQEGLKEESGFLREVLNAVPVLLHIPALAGKVLRFQKAFLTQLDELLTEHRMTWDPAQPPRDLTEAFLAEMEKAKGNPESSFNDENLRIVVADLFSAGMVTTSTTLAWGLLLMILHPDVQRRVQQEIDDVIGQVRRPEMGDQAHMPYTTAVIHEVQRFGDIVPLGVTHMTSRDIEVQGFRIPKGTTLITNLSSVLKDEAVWEKPFRFHPEHFLDAQGHFVKPEAFLPFSAGRRACLGEPLARMELFLFFTSLLQHFSFSVPTGQPRPSHHGVFAFLVSPSPYELCAVPR
- Km (not read [3]): 85.1 (69.4–107.8) µM

B2: CYP3A5 (Homo sapiens) (protein)
chain: MDLIPNLAVETWLLLAVSLVLLYLYGTRTHGLFKRLGIPGPTPLPLLGNVLSYRQGLWKFDTECYKKYGKMWGTYEGQLPVLAITDPDVIRTVLVKECYSVFTNRRSLGPVGFMKSAISLAEDEEWKRIRSLLSPTFTSGKLKEMFPIIAQYGDVLVRNLRREAEKGKPVTLKDIFGAYSMDVITGTSFGVNIDSLNNPQDPFVESTKKFLKFGFLDPLFLSIILFPFLTPVFEALNVSLFPKDTINFLSKSVNRMKKSRLNDKQKHRLDFLQLMIDSQNSKETESHKALSDLELAAQSIIFIFAGYETTSSVLSFTLYELATHPDVQQKLQKEIDAVLPNKAPPTYDAVVQMEYLDMVVNETLRLFPVAIRLERTCKKDVEINGVFIPKGSMVVIPTYALHHDPKYWTEPEEFRPERFSKKKDSIDPYIYTPFGTGPRNCIGMRFALMNMKLALIRVLQNFSFKPCKETQIPLKLDTQGLLQPEKPIVLKVDSRDGTLSGE
notes: purchased Cypex (Dundee, UK); host or cells: bactosomes (bacterial membranes)
- Km (not read [4]): 8.5 (7.6–9.5) µM
